Where a name gives a salt, the structure may show the parent alone.
Assay: Particle size distribution of micronized escitalopram oxalate batches (laser light diffraction, Malvern instrument)
Type: physicochemical
Details: micronized powder; for D50/D95: ratio of D50 to D95; for D50: size below which 50 volume percent of particles lie; for D50 / D95: Malvern instrument; for D95: size below which 95 volume percent of particles lie
Text: The term D95 as used herein is defined as a size of particles where 95 volume percent of the particles have sizes less than the value given. The term D50 defines a size where 50 volume percent of the particles have sizes less than the value given.
The particle size distributions for the present application can measured using laser light diffraction equipment, such as are sold by Malvern Instruments Ltd., Malvern, Worcestershire, United Kingdom. Other types of equipment are also suitable for particle size distribution determinations.
The obtained solid was micronized in a jet mill to produce desired particle sizes. The feed pressure was adjusted to about 2 Kg/cm^2; the chamber pressure was adjusted to about 1.5 Kg/cm^2 and the feed rate to about 1 to 2 kg/hour. The material fed into the micronizer through a charging hopper. The obtained micronized material was collected into a container.

D50/D95 (listed as 2) | D50 (listed as 2) | D95 (listed as 2) | D50/D95 (listed as 1) | D50 (listed as 1) | D95 (listed as 1) | Structure (SMILES)
0.4653 | 4.56 | 9.80 | – | – | – | CN(C)CCCC1(c2ccc(F)cc2)OCc2cc(C#N)ccc21 (stereo not drawn) [Batch 2, S-(+)-1-[3-(dimethyl-amino)propyl]-1-(p-fluorophenyl)-5-phthalancarbonitrile oxalate]
– | – | – | 0.4293 | 3.95 | 9.20 | CN(C)CCCC1(c2ccc(F)cc2)OCc2cc(C#N)ccc21 (stereo not drawn) [Batch 1, S-(+)-1-[3-(dimethyl-amino)propyl]-1-(p-fluorophenyl)-5-phthalancarbonitrile oxalate]

— patent US20090048336A1, “ESCITALOPRAM OXALATE POWDERS” (priority 2007, published 2009)
